Results taken from PubChem BioAssay (NCI).
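These data come from cells grown in 96-well plates and exposed to compound for 48 hours at five concentrations. The concentration for 50% growth inhibition is given as GI50. TGI: concentration producing complete growth inhibition.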

Columns and labels:
Assay in all cases: DTP human tumour cell line panel, 48 h
NCI-H460 lung = test system: NCI-H460 lung
SF-539 CNS = test system: SF-539 CNS
OVCAR-3 ovarian = test system: OVCAR-3 ovarian
OVCAR-4 ovarian = test system: OVCAR-4 ovarian
K-562 leukemia = test system: K-562 leukemia
SR leukemia = test system: SR leukemia
LOX IMVI melanoma = test system: LOX IMVI melanoma
HOP-92 NSCLC = test system: HOP-92 NSCLC
A549 NSCLC = test system: A549 NSCLC
RXF 393 renal = test system: RXF 393 renal
OVCAR-5 ovarian = test system: OVCAR-5 ovarian
HCT-116 colon = test system: HCT-116 colon
HCT-15 colon = test system: HCT-15 colon
SK-MEL-5 melanoma = test system: SK-MEL-5 melanoma
786-0 renal = test system: 786-0 renal
T-47D breast = test system: T-47D breast
MDA-MB-435 = test system: MDA-MB-435
EKVX NSCLC = test system: EKVX NSCLC
A498 renal = test system: A498 renal
HT29 colon = test system: HT29 colon
NCI/ADR-RES ovarian = test system: NCI/ADR-RES ovarian
SF-295 CNS = test system: SF-295 CNS
BT-549 breast = test system: BT-549 breast
OVCAR-8 ovarian = test system: OVCAR-8 ovarian
SF-268 CNS = test system: SF-268 CNS
UO-31 renal = test system: UO-31 renal
HS 578T breast = test system: HS 578T breast
CAKI-1 renal = test system: CAKI-1 renal
MALME-3M melanoma = test system: MALME-3M melanoma
NCI-H23 lung = test system: NCI-H23 lung
COLO 205 colon = test system: COLO 205 colon
NCI-H226 lung = test system: NCI-H226 lung
SK-MEL-2 melanoma = test system: SK-MEL-2 melanoma
SNB-75 CNS = test system: SNB-75 CNS
MCF7 breast = test system: MCF7 breast
ACHN renal = test system: ACHN renal
SN12C renal = test system: SN12C renal
M14 melanoma = test system: M14 melanoma
TK-10 renal = test system: TK-10 renal
RPMI-8226 leukemia = test system: RPMI-8226 leukemia
KM12 colon = test system: KM12 colon
SNB-19 CNS = test system: SNB-19 CNS
UACC-257 melanoma = test system: UACC-257 melanoma
MOLT-4 leukemia = test system: MOLT-4 leukemia
CCRF-CEM leukemia = test system: CCRF-CEM leukemia
PC-3 prostate = test system: PC-3 prostate
U251 CNS = test system: U251 CNS
DU-145 prostate = test system: DU-145 prostate
UACC-62 melanoma = test system: UACC-62 melanoma
SK-MEL-28 melanoma = test system: SK-MEL-28 melanoma
MDA-MB-231 breast = test system: MDA-MB-231 breast
HL-60(TB) leukemia = test system: HL-60(TB) leukemia
IGROV1 ovarian = test system: IGROV1 ovarian
SW-620 colon = test system: SW-620 colon
HOP-62 NSCLC = test system: HOP-62 NSCLC
SK-OV-3 ovarian = test system: SK-OV-3 ovarian

Work on `CCN(CC)c1ccc(N=O)cc1` yielded a GI50 (NCI-H460 lung) of 5.12 µM, a TGI (NCI-H460 lung) of 34.2 µM and a GI50 (SF-539 CNS) of 2.96 µM. It also gave a TGI (SF-539 CNS) of 10.1 µM, a GI50 (OVCAR-3 ovarian) of 1.97 µM and a TGI (OVCAR-3 ovarian) of 4.61 µM. The GI50 (OVCAR-4 ovarian) was 3.26 µM, the TGI (OVCAR-4 ovarian) was 13.5 µM and the GI50 (K-562 leukemia) was 2.23 µM. It also gave a TGI (K-562 leukemia) of 15.9 µM, a GI50 (SR leukemia) of 3.74 µM and a TGI (SR leukemia) of 46.2 µM. It also gave a GI50 (LOX IMVI melanoma) of 1.67 µM, a TGI (LOX IMVI melanoma) of 3.53 µM and a GI50 (HOP-92 NSCLC) of 2.18 µM. For the same compound, the TGI (HOP-92 NSCLC) was 7.73 µM, the GI50 (A549 NSCLC) was 2.07 µM and the TGI (A549 NSCLC) was 5.56 µM. For the same compound, the GI50 (RXF 393 renal) was 2.46 µM, the TGI (RXF 393 renal) was 7.45 µM and the GI50 (OVCAR-5 ovarian) was 3.51 µM. The TGI (OVCAR-5 ovarian) was 14.3 µM, the GI50 (HCT-116 colon) was 1.82 µM and the TGI (HCT-116 colon) was 4.71 µM. For the same compound, the GI50 (HCT-15 colon) was 2.26 µM, the TGI (HCT-15 colon) was 12.8 µM and the GI50 (SK-MEL-5 melanoma) was 2.47 µM. The TGI (SK-MEL-5 melanoma) was 7.38 µM, the GI50 (786-0 renal) was 7.46 µM and the TGI (786-0 renal) was 23.6 µM. It also gave a GI50 (T-47D breast) of 2.89 µM, a TGI (T-47D breast) of 16.7 µM and a GI50 (MDA-MB-435) of 2.72 µM. It also gave a TGI (MDA-MB-435) of 11.9 µM, a GI50 (EKVX NSCLC) of 10.2 µM and a TGI (EKVX NSCLC) of 26.8 µM. The GI50 (A498 renal) was 13.6 µM, the TGI (A498 renal) was 38.5 µM and the GI50 (HT29 colon) was 1.27 µM. It also gave a TGI (HT29 colon) of 4.3 µM, a GI50 (NCI/ADR-RES ovarian) of 2.33 µM and a TGI (NCI/ADR-RES ovarian) of 7 µM. For the same compound, the GI50 (SF-295 CNS) was 4.87 µM, the TGI (SF-295 CNS) was 20.5 µM and the GI50 (BT-549 breast) was 16.6 µM. For the same compound, the TGI (BT-549 breast) was 30.5 µM, the GI50 (OVCAR-8 ovarian) was 3.14 µM and the TGI (OVCAR-8 ovarian) was 12.3 µM. It also gave a GI50 (SF-268 CNS) of 5.53 µM, a TGI (SF-268 CNS) of 20.9 µM and a GI50 (UO-31 renal) of 1.21 µM. The TGI (UO-31 renal) was 3.81 µM, the GI50 (HS 578T breast) was 10.2 µM and the TGI (HS 578T breast) was over 100 µM. The GI50 (CAKI-1 renal) was 1.29 µM, the TGI (CAKI-1 renal) was 3.83 µM and the GI50 (MALME-3M melanoma) was 1.59 µM. For the same compound, the TGI (MALME-3M melanoma) was 4.46 µM, the GI50 (NCI-H23 lung) was 1.95 µM and the TGI (NCI-H23 lung) was 5.32 µM. The GI50 (COLO 205 colon) was 1.98 µM, the TGI (COLO 205 colon) was 5.46 µM and the GI50 (NCI-H226 lung) was 13.6 µM. The TGI (NCI-H226 lung) was 38.4 µM, the GI50 (SK-MEL-2 melanoma) was 8.39 µM and the TGI (SK-MEL-2 melanoma) was 22 µM. The GI50 (SNB-75 CNS) was 3.47 µM, the TGI (SNB-75 CNS) was 16.9 µM and the GI50 (MCF7 breast) was 2.76 µM. The TGI (MCF7 breast) was 11.8 µM, the GI50 (ACHN renal) was 2.61 µM and the TGI (ACHN renal) was 11.1 µM. The GI50 (SN12C renal) was 4.24 µM, the TGI (SN12C renal) was 17.2 µM and the GI50 (M14 melanoma) was 3.47 µM. It also gave a TGI (M14 melanoma) of 14.4 µM, a GI50 (TK-10 renal) of 2.79 µM and a TGI (TK-10 renal) of 10.8 µM. The GI50 (RPMI-8226 leukemia) was 2.09 µM, the TGI (RPMI-8226 leukemia) was 6.33 µM and the GI50 (KM12 colon) was 3.39 µM. For the same compound, the TGI (KM12 colon) was 13.1 µM, the GI50 (SNB-19 CNS) was 12.8 µM and the TGI (SNB-19 CNS) was 29.9 µM. It also gave a GI50 (UACC-257 melanoma) of 1.82 µM, a TGI (UACC-257 melanoma) of 4.15 µM and a GI50 (MOLT-4 leukemia) of 3.34 µM. For the same compound, the TGI (MOLT-4 leukemia) was 30.1 µM, the GI50 (CCRF-CEM leukemia) was 0.937 µM and the TGI (CCRF-CEM leukemia) was 13 µM. The GI50 (PC-3 prostate) was 3.14 µM, the TGI (PC-3 prostate) was 12.1 µM and the GI50 (U251 CNS) was 1.14 µM. It also gave a TGI (U251 CNS) of 2.73 µM, a GI50 (DU-145 prostate) of 6.43 µM and a TGI (DU-145 prostate) of 19.9 µM. For the same compound, the GI50 (UACC-62 melanoma) was 6.66 µM, the TGI (UACC-62 melanoma) was 23.5 µM and the GI50 (SK-MEL-28 melanoma) was 10.7 µM. For the same compound, the TGI (SK-MEL-28 melanoma) was 23 µM, the GI50 (MDA-MB-231 breast) was 5.29 µM and the TGI (MDA-MB-231 breast) was 20.9 µM. It also gave a GI50 (HL-60(TB) leukemia) of 2.85 µM, a TGI (HL-60(TB) leukemia) of 13.6 µM and a GI50 (IGROV1 ovarian) of 2.05 µM. It also gave a TGI (IGROV1 ovarian) of 6.41 µM, a GI50 (SW-620 colon) of 1.71 µM and a TGI (SW-620 colon) of 5.53 µM. The GI50 (HOP-62 NSCLC) was 2.78 µM, the TGI (HOP-62 NSCLC) was 11.8 µM and the GI50 (SK-OV-3 ovarian) was 12.4 µM. For the same compound, the TGI (SK-OV-3 ovarian) was 29.3 µM.
